ChEMBL document CHEMBL2331295, “Characterization of a selective CaMKII peptide inhibitor” (Eur J Med Chem, 2013)
The source made the active and inactive calls. The rule behind the calls is not given here.

Assays:
[1] = molecular target: Calcium/calmodulin-dependent protein kinase type II subunit alpha (Homo sapiens) (UniProt Q9UQM7); assay: Inhibition of GFP-tagged CAMK2alpha (unknown origin) expressed in african green monkey Vero cells using syntide2 as substrate assessed as incorporation of 32P at 5 uM after 30 mins by scintillation counting analysis in presence of [gamma32P]ATP relative to control; type: cell-based
Calcium/calmodulin-dependent protein kinase type II subunit alpha (Homo sapiens), sequence (Q9UQM7 whole entry): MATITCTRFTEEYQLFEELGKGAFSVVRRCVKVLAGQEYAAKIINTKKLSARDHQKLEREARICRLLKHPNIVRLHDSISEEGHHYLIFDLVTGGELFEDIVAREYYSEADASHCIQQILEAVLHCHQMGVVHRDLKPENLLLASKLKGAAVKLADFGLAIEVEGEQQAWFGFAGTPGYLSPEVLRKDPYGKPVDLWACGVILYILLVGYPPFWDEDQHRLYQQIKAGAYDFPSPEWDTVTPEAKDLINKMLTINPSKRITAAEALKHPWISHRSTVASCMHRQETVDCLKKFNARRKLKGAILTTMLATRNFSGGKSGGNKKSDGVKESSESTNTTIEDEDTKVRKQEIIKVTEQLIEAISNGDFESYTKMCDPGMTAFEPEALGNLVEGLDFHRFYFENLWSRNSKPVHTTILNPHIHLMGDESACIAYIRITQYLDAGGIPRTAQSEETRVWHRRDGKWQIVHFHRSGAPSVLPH

[2] = molecular target: T1, Calcium/calmodulin-dependent protein kinase type IV (Homo sapiens) (UniProt Q16566); assay: Inhibition of CAMK4 (unknown origin) using gamma peptide as substrate assessed as incorporation of 32P at 5 uM after 30 mins by scintillation counting analysis in presence of [gamma32P]ATP relative to control
T1 sequence (whole entry): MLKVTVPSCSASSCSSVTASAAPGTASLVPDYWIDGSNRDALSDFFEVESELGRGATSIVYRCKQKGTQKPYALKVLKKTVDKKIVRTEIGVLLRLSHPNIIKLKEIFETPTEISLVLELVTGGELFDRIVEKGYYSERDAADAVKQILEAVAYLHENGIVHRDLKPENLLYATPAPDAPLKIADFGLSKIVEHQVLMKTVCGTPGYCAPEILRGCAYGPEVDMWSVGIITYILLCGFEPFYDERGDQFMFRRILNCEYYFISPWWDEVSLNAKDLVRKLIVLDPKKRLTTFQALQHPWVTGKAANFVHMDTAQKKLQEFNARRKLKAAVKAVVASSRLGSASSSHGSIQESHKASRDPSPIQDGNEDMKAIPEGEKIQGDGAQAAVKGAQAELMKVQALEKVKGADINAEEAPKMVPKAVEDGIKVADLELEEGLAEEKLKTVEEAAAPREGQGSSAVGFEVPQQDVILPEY

[3] = molecular target: Calcium/calmodulin-dependent protein kinase type 1 (Homo sapiens) (UniProt Q14012); assay: Inhibition of CAMK1 (unknown origin) using ADR1G as substrate assessed as incorporation of 32P at 5 uM after 30 mins by scintillation counting analysis in presence of [gamma32P]ATP relative to control
Calcium/calmodulin-dependent protein kinase type 1 (Homo sapiens), sequence (Q14012 whole entry, looked up): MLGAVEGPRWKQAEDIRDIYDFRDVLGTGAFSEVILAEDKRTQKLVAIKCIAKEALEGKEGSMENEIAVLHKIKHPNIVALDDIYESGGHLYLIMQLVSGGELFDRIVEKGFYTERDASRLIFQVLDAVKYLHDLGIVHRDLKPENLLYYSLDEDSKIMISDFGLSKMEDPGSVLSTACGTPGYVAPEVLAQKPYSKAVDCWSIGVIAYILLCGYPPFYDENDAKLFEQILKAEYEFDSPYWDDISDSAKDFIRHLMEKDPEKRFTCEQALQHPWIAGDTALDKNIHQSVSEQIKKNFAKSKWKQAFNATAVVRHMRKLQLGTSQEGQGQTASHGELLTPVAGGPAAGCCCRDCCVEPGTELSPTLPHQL

[4] = test system: H9c2; assay: Inhibition of serum-induced endogenous CAMK2 activation in […] H9C2 cells at 5 uM after 30 mins relative to control; type: cell-based

Row | inhibition [1] [%] | inhibition [2] | inhibition [3] [%] | Substance | inhibition [4] [%]
1 | < 70 | – | – | H-KRPPKLGQIGRSKRVVI-OH | –
2 | – | inactive | 6.1 | H-RQIKIWFQNRRMKWKKGGCKRPPKLGQIGRAKRVVI-OH | 52
